{"source": "patent US20180049996A1", "about": "“THERAPEUTIC AGENT FOR CHRONIC RESPIRATORY DISEASE AND COMPOSITION FOR INHIBITING CARDIAC FIBROSIS” (NIPPON HYPOX LABORATORIES INCORPORATED, priority 2015, published 2018)", "key": {"IL-6": {"test_system": "IL-6", "assay": "IL-6 level in BAL fluid (ELISA), COPD model", "type": "in vivo, C57BL/6N mice", "settings": "HTHQ 10 and 20 mg/kg/day oral; tobacco smoke 10 days + LPS; compared to COPD model group", "description": "6 week old male SPF C57BL/6N mice, 20 to 25 g of body weight, were purchased from CORETEC INC. (South Korea).\nThe tests were conducted as follows. The mice in the COPD (chronic obstructive pulmonary disease) model group of the test groups were exposed to tobacco smoke for 1 hour per day (8 cigarettes/day) for 10 days and LPS (5 μg/50 μL/mouse) was intranasally administered to the mice on day 8 after the start of the tests. […]\nThe mice in the test groups were euthanized 72 hours after the LPS administration and the mice in the normal control group were euthanized on day 11 after the start of the tests by intraperitoneal injection of pentobarbital (Hanrimu pharmaceutical, South Korea) at 50 mg/kg and then the bronchi were excised. […] After preparing slide samples from 100 μL of BAL cell fluid using Cytospin (4° C., 1000 rpm×5 min), the cell numbers of inflammatory cells (neutrophil, macrophages) present in the BAL fluid were counted using a Diff-Quik stain kit.\nThe supernatant of the BAL fluid stored was taken out of the super-cryostat, and TNF-α and IL-6 levels were measured as the levels of pro-inflammatory cytokines in the supernatant. A quantitative ELISA kit (a product from Invitrogen) and an ELISA analyzer (a product from Molecular Devices, LLC.) were used for the measurement and the measurement wavelength was 450 nm."}, "IgE": {"test_system": "IgE", "assay": "Total content of IgE in serum, ovalbumin asthma model", "type": "in vivo, BALB/c female mice", "settings": "day 25, compared to OVA group", "description": "(§1) 6 week old BALB/c female mice were purchased and the mice were divided into 5 groups with 5 animals per group shown in Table 3 below after habituation breeding of about 2 weeks.\nThe test was conducted on the schedule of sensitization, causing diseases and administration of test materials shown in FIG. 12. “IP” in FIG. 12 refers to ovalbumin sensitization treatment by the intraperitoneal administration of ovalbumin/aluminum hydroxide, and “IH” refers to inhalation exposure treatment of ovalbumin, and “PO” refers to the administration of the test materials. Specifically, 200 μL of PBS (pH 7.4) emulsified by the addition of 20 μg ovalbumin and 2 mg aluminum hydroxide as an adjuvant was intraperitoneally administered to all mice in 4 groups except the normal control group (the initial sensitization, day 1 of the test). Then, after 2 weeks (day 14 of the test), the second sensitization treatment was conducted in the same way as the initial sensitization. […]\nOn day 25 of the test, the total contents of IgE and contents of ovalbumin-specific IgE in serums were measured using blood collected from orbital sinuses of the mice. An ELISA kit for IgE measurement (a product from BioLegend, Inc.) was used for the measurement and the contents were measured at wavelength of 450 nm using a micro plate reader (a product from Bio-Rad Laboratories, Inc.)."}, "IL-13": {"test_system": "IL-13", "assay": "IL-13 level in BAL fluid (ELISA), ovalbumin asthma model", "type": "in vivo, BALB/c female mice", "settings": "HTHQ 20 and 40 mg/kg/day oral; compared to OVA group", "description": "as §1\nThe test was conducted on the schedule of sensitization, causing diseases and administration of test materials shown in FIG. 12. “IP” in FIG. 12 refers to ovalbumin sensitization treatment by the intraperitoneal administration of ovalbumin/aluminum hydroxide, and “IH” refers to inhalation exposure treatment of ovalbumin, and “PO” refers to the administration of the test materials. […]\nAll mice were euthanized by intraperitoneal injection of pentobarbital (Hanrimu pharmaceutical, South Korea) at 50 mg/kg and the bronchi were excised on day 25 of the test. […] After preparing slide samples from 100 μL of BAL cell fluid using Cytospin (4° C., 1000 rpm×5 min), the cell numbers of inflammatory cells (eosinophils, macrophages, lymphocytes and neutrophils) present in the BAL fluid were counted using a Diff-Quik stain kit.\nThe supernatant of the BAL fluid stored was taken out of the super-cryostat and IL-4, IL-5 and IL-13 levels were measured as the pro-inflammatory cytokine contents in the supernatant of the BAL fluid. A quantitative ELISA kit (a product from R&D systems) and a microplate reader (a product from Bio-Rad Laboratories, Inc.) were used for the measurement and the measurement wavelength was 450 nm."}}, "data": [{"smiles": "CCCCCCOc1cc(C)c(O)c(C)c1C", "note": "[HTHQ, 2,3,5-trimethylhydroquinone-1-hexyl ether]", "values": [{"measurement": "IL-6 level in BAL fluid", "setting": "IL-6", "result": "significantly reduced"}, {"measurement": "total amount of IgE in serum", "setting": "IgE; HTHQ 20 mg/kg/day oral (HTHQ20)", "result": "significant reduction"}, {"measurement": "total amount of IgE in serum", "setting": "IgE; HTHQ 40 mg/kg/day oral (HTHQ40)", "result": "a declining trend"}, {"measurement": "IL-13 content in BAL fluid", "setting": "IL-13", "result": "significantly reduced"}]}]}
